# How the values were obtained:
# [1] = tested on: 1321N1 cells; experiment: Glutathione (GSH) level in cytosolic extract, 1321N1; format: cell-based; conditions: 1321N1, 50 µM, 24 h
# Method: Cells were harvested and GSH concentration was determined in the cytosolic extract. Data represent the mean±S.D. of independent experiments (n = 6).
# GSH was determined using DTNB method. Briefly, cytosolic extract of tumor cells were precipitated by 5% sulfosalicylic acid neutralization, aliquots were mixed with DTNB and absorbance was read at 412 nm against a standard solution of GSH.
# [2] = tested on: Glo1 in JIMT-1 cells; experiment: Glo1 protein content by Western blot; format: cell-based, human; conditions: JIMT-1, 24 h
# Method: (§1) Cells were harvested and the specific activity of Glo1 and LDH was determined in the cytosolic extract. (B) Semi-quantitative analysis of protein content as performed by Western blot using specific antibodies against β-actin and Glo1. The blot was developed by chemoluminescense detection. […] Data represent the mean±S.D. of independent experiments (n = 6).
# An amount of 20 µg to 40 µg of cytosolic extract was loaded to SDS-pore gradient gels (4 to 20%) and run under reducing conditions. Proteins were blotted to cellulose nitrate membranes (Whatman Schleicher & Schuell, Dassel, Germany) and Glo1 was detected by anti-Glo1 monoclonal antibodies (1 µg/ml) (BioMac, Leipzig, Germany) in combination with goat anti-mouse Ig-HRP (1∶1000) (Dako, Hamburg, Germany). For comparison, β-actin was analyzed using rabbit anti-β-actin Ig (1∶2000) (Acris, Hiddenhausen, Germany) in conjunction with HRP-labeled goat anti-rabbit Ig (Dianova, Hamburg, Germany). Band visualization was performed by chemiluminescence detection (Boehringer, Mannheim, Germany).
# [3] = tested on: IL-1β release from LPS-stimulated blood cells; experiment: Whole blood assay, LPS-induced IL-1β release (cytometric bead array); format: cell-based; conditions: Homo sapiens; heparinized whole blood, LPS 10 ng/ml, 6 h, 37°C
# Method: Figure 2 Effect of polyphenols on IL-1β release from LPS-stimulated blood cells. Heparinized whole blood was stimulated by LPS in the absence or presence of polyphenols at increasing concentrations and incubated for 6 h at 37°C with 5% CO2. (A) Released IL-1β as measured in cell supernatants. Samples without additives but LPS were set at 100%. (B) The calculated […] values of the respective polyphenols. Data represent mean±S.D. of independent experiments (n = 6).
# Whole blood assay was performed as previously described. Accordingly, LPS (10 ng/ml), test substances and 200 µl heparinized human blood of healthy donors, obtained from the blood bank of the University of Leipzig, were co-incubated with serum-free medium (RPMI-SF, 1 ml final volume) in 24-well culture plates for 6 h at 37°C with 5% CO2. Samples were removed, centrifuged at 2000×g for 10 min and supernatants were stored at −20°C until assaying for inflammatory cytokines.
# Assessment of cytokine levels in supernatants of human blood cell cultures was accomplished using Cytometric Bead Array (CBA™, BD Biosciences, San Jose, U.S.A). The procedure was carried out according to the manufacturer's instruction. Fluorescence measurement and analysis were performed using a FACSCalibur and the CellQuest software (BD Biosciences).
# [4] = tested on: astrocytoma 1321N1 cells; experiment: Apoptosis/necrosis by annexin V-FITC/PI staining, flow cytometry; format: cell-based; conditions: 24 h
# Method: Apoptosis/necrosis was evaluated using annexin V-5-fluorescein isothiocyanate (FITC)/propidium iodine (PI) staining followed by flow cytometric analysis. […] The proportion of dead cells (a: annexin V-FITC^−/PI^+), late apoptotic/necrotic cells (b: annexin V-FITC^+/PI^+), non-apoptotic cells (c: annexin V-FITC^−/PI^−) and early apoptotic cells (d: annexin V-FITC^+/PI^−). (B) Results of 3 independent experiments. […] Data represent the mean±S.D. of three independent experiments.
# Samples were analyzed by flow cytometry using a FACSCalibur and the CellQuest software (BD Biosciences, San Jose, USA). Laser excitation wavelength was set at 488 nm. The green signal from annexin V-FITC was measured at 525 nm and the red signal from PI was measured at 620 nm. Annexin V^−/PI^− cells are viable; annexin V^+/PI^− cells are in early apoptosis, whereas annexin V^+/PI^+ cells are necrotic or in late apoptosis are […]
# [5] = tested on: prostate cancer PC-3 cells; experiment: Cell proliferation WST-1 assay, PC-3; format: cell-based
# Method: Figure 3 Growth inhibition of different tumor cell lines by polyphenols. […] Following 24-h incubation, cell proliferation was evaluated using the WST-1 assay.
# Tumor cells were cultured in RPMI medium containing 10% fetal calf serum (RPMI-FCS) (PC-3, JIMT-1, MDA-MD 231) or in DMEM-FCS (astrocytoma 1321N1 cells) containing penicillin/streptomycin (100 U penicillin/ml; 100 µg streptomycin/ml) at 37°C/5% CO2. Cytosolic protein extracts of tumor cells were prepared using extraction buffer composed of 25 mM Tris, 2 mM EDTA, 10% Glycerol, 1% Triton ×100, 2 mM DTT, 1mM PMSF, pH. 7.0 containing 0.3% protease inhibitor cocktail. Protein content was determined according to Bradford. Specific activity of enzymes analyzed in cell extracts was expressed as U/mg protein.
# Cell proliferation/vitality of tumor cells (96-well plates; 5000 cells/well) and primary human hepatocytes (24-well plates; 0.25×10^6 cells/well) was assayed using the WST-1 assay according to manufacturer's instructions. Trypan blue exclusion was performed by staining cells with 0.4% aqueous trypan blue solution according to the manufacturer's instructions.
# [6] = tested on: 1321N1 cells; experiment: Cell vitality by trypan blue exclusion; format: cell-based; conditions: 50 µM, 6-h incubation; control 95.6%±2.5%
# Text: (B) Cell vitality as assayed by the trypan blue exclusion test. Data represent the mean±S.D. of independent experiments (n = 6).
# [7] = tested on: JIMT-1 cells; experiment: Cellular ATP content (CellTiter-Glo), JIMT-1; format: cell-based, human; conditions: JIMT-1, 6 h; curcumin 0–100 µM, MGO 0–1000 µM
# Method: Cellular ATP content was determined using the CellTiter-Glo® Luminescent Cell Viability Assay. Data represent the mean±S.D. of independent experiments (n = 12).
# Cell ATP content was determined by means of the CellTiter-Glo® Luminescent Cell Viability Assay according to the manufacturer's instructions (Promega, Madison, USA). […] After 6-h incubation, cells were mixed with test reagents and luminescence was read according to the manufacturer's instructions. A standard curve was prepared from ATP (1 µM to 10 nM) in medium.
# [8] = tested on: LDH in JIMT-1 cells; experiment: LDH activity in cytosolic extract of treated cells; format: cell-based, human; conditions: JIMT-1, 24 h
# Method: as §1
# LDH activity was spectrophotometrically assayed in the cytosolic extract or in the of cell cultures by adding aliquots to 1 ml reaction buffer (50 mM Na2HPO4, pH 7.0, 0.15 mM NADH, and 0.3 mM pyruvate). Enzyme activity was recorded at 340 nm.
# [9] = tested on: astrocytoma 1321N1 cells; experiment: D-lactate release into medium; format: cell-based; conditions: 1321N1, 20 µM curcumin, 24 h; control 34.6±6 µM
# Method: as §1
# The determination of D-lactate and L-lactate in supernatants of astrocytoma 1321N1 cells was performed by an enzymatic method based on the oxidation of L-lactate and D-lactate to pyruvate by NAD in the presence of L-LDH or D-LDH[63].
smiles,measurement,setting,value
"COc1cc(C=CC(=O)CC(=O)C=Cc2ccc(O)c(OC)c2)ccc1O [curcumin, 1,7-bis(4-hydroxy-3-methoxyphenyl)-1,6-heptadiene-3,5-dione]",GSH diminished by,[1],approximately 20%
same,Glo1 protein content (Western blot),[2],no alteration
same,IC50,[3],7.9 µM
same,early apoptotic cells (annexin V-FITC+/PI−),[4]; 10 µM,11.0%
same,late apoptotic/necrotic cells (annexin V-FITC+/PI+),[4]; 50 µM,98.2%
same,effect on PC-3 cells at 100 µM,"[5]; 100 µM, 24 h, morphology lost, necrotic cell death",toxic effect
same,concentration giving strong anti-proliferative effects,"[5]; PC-3, 24 h, WST-1",above 50 µM
same,percentage of vital cells (trypan blue exclusion),[6],89.5%±2.5%
same,cellular ATP content,[7],decreased cellular ATP in a concentration-dependent manner
same,LDH activity in cytosolic extract,[8],increased at higher curcumin concentrations
same,D-lactate concentration in the medium,[9],22 ± 1.9 µM

# — paper PMC2567432 (PLoS ONE, 2008)
